Experimental data from patent US9790218B2, “Small molecule activators of calcium-activated chloride channels and methods of use” (The Regents of the University of California, priority 2011, dated 2017).

Tested on: non-CF human tracheal gland (HTG) serous cells
Assay: Short-circuit current in human tracheal gland (HTG) serous cells
Assay type: cell-based
Settings: T16Ainh-A01 pretreatment
Procedure: FIG. 5A-B. Airway epithelial chloride secretion. FIG. 5A. Short-circuit current in CF HBE cells. Eact and UTP (100 μM) were added in control (left) and IL-4 (10 ng/ml, 24 h, middle) treated CF HBE cells. (right) Summary of Eact-induced, T16Ainh-A01-sensitive peak current (mean±S.E., n=6-8, * P<0.05). ENaC was inhibited by 10 μM amiloride. FIG. 5B. Eact (10 μM) and UTP (100 μM) induced CaCC Cl^− current measured in primary cultures of non-CF human tracheal gland (HTG) serous cells. (left and gmiddle) TMEM16A, CFTR and ENaC were inhibited by pretreatment with T16Ainh-A01, CFTRinh-172 and amiloride, respectively. Inset: TMEM16A immunoblot in whole cell homogenates of CF HBE and HTG cells. (right) Summary of UTP and Eact-induced peak current in the presence and absence of T16Ainh-A01 (mean±S.E., n=3, * P<0.05). […]
Snapwell inserts containing TMEM16A-expressing FRT, HBE, CF HBE or HTG cells were mounted in Ussing chambers (Physiologic Instruments, San Diego, Calif.). […] Apical membrane current (for FRT cells) and short-circuit current were measured using an EVC4000 Multi-Channel V/I Clamp (World Precision Instruments, Sarasota, Fla.) and recorded using PowerLab/8sp (AD Instruments, Castle Hill, Australia). […]

Compound: CCc1c(C)nc(SCC(=O)Nc2nc(-c3ccc(OC)cc3)cs2)[nH]c1=O [T16Ainh-A01, reference compound]
- effect of pretreatment on UTP- and Eact-induced Cl^− current: largely abolished
